Experimental data: publication PMC3668706, “Highly Divergent T-cell Receptor Binding Modes Underlie Specific Recognition of a Bulged Viral Peptide bound to a Human Leukocyte Antigen Class I Molecule” (The Journal of Biological Chemistry, 2013)

Assays:
[1] = tested on: SB47 CTL clone; assay: Intracellular IFN-γ staining, SB47 CTL clone with LPEP-pulsed T2 cells; format: cell-based, human; settings: IFNγ intracellular staining, peptide-pulsed T2 cells, 4 h; performed twice
Protocol: Data were analyzed with FlowJo software (Tree Star).

[2] = tested on: CA5 CTL clone; settings: IFNγ intracellular staining, peptide-pulsed T2 cells, 4 h; performed twice
Protocol: CTL clones were tested against a range of antigen-presenting cells and assayed for intracellular expression of IFN-γ by flow cytometry using the BD Cytofix/Cytoperm kit (BD Biosciences) according to standard protocols. Briefly, clones were incubated with antigen-presenting cells at a stimulator to responder ratio of 1:2 for 4 h in the presence of brefeldin A (BioLegend). For peptide titration experiments, T2 cells were incubated with various concentrations of LPEP peptide for 1 h and then washed thoroughly prior to incubation with CTL clones. After stimulation, cells were stained with Live/Dead Fixable Aqua Dead Cell Stain (Invitrogen) and anti-CD8-Cy5.5-PerCP mAb (BioLegend) for 30 min at 4 °C. Cells were then washed, fixed, permeabilized, and labeled with anti-IFN-γ-antigen-presenting cell mAb (BioLegend) for 30 min at 4 °C. After a further wash, samples were collected using a FACSCanto II flow cytometer (BD Biosciences). Data were analyzed with FlowJo software (Tree Star). Lymphocytes were identified based on light scatter, then live CD8^+ T-cells were selected and IFN-γ^+ gates were drawn based on unstimulated controls.

Sequence: LPEPLPQGQLTAY [LPEP peptide]
- recognition of LPEP presented by HLA-B*35:08 versus HLA-B*35:01 by SB47 CTL clone [1]: equally well
- recognition of LPEP presented by HLA-B*35:08 versus HLA-B*35:01 by CA5 CTL clone [2]: preferentially recognized HLA-B*35:08^LPEP when the peptide was limited
